{
  "source": "patent US20240381872A1",
  "about": "“SUBSTITUTED 2,3-DIHYDRO[1,3]THIAZOLO[4,5-B]PYRIDINES, SALTS THEREOF AND THEIR USE AS HERBICIDALLY ACTIVE SUBSTANCES” (BAYER AKTIENGESELLSCHAFT, priority 2021, published 2024)",
  "type_in_all_cases": "in vivo",
  "key": {"[1]": {"system": "Stellaria media (STEME)", "experiment": "Herbicidal pre-emergence action, section A (Table A9)", "summary_of_the_method": "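Compounds are applied pre-emergence to the soil covering freshly sown seeds in sandy loam, as WP or EC in water with 0.5% additive at a spray volume of 600 l/ha. Plants grow in the greenhouse, and percent damage is rated visually after roughly 3 weeks relative to untreated controls.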"}, "[2]": {"system": "Alopecurus myosuroides (ALOMY)", "experiment": "Herbicidal post-emergence action, section B (Table B2)", "settings": "rated visually about 3 weeks after treatment vs untreated controls, 100% = plants have died, 0% = like control plants", "method": "(§1) Seeds of mono- and dicotyledonous weed plants were placed in plastic pots in sandy loam soil (doubly sown with in each case one species of mono- or dicotyledonous weed plants per pot), covered with soil and cultivated in a greenhouse under controlled growth conditions. 2 to 3 weeks after sowing, the test plants were treated at the one-leaf stage. The compounds of the invention, formulated in the form of wettable powders (WP) or as emulsion concentrates (EC), were applied onto the green parts of the plants as aqueous suspension or emulsion with addition of 0.5% additive at a water application rate of 600 liters per hectare (converted). After the test plants had been kept in the greenhouse under optimum growth conditions for about 3 weeks, the activity of the preparations was rated visually in comparison to untreated controls. For example, 100% activity=the plants have died, 0% activity=like control plants."}, "[3]": {"system": "Echinochloa crus-galli (ECHCG)", "experiment": "Herbicidal post-emergence action, section B (Table B3)", "settings": "rated visually after about 3 weeks; for pest or weed control at 1280 g/ha: Echinochloa crus-galli, 504 h, read-out: post-emergence activity against ECHCG in %", "summary_of_the_method": "(§2)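 Activity was scored visually as percent of untreated controls about 3 weeks after spraying, where 100% meant dead plants and 0% meant no difference. Plants were treated at the one-leaf stage with WP or EC formulations in water containing 0.5% additive, applied at 600 liters per hectare.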"}, "[4]": {"system": "Matricaria inodora (MATIN)", "experiment": "Herbicidal post-emergence action, section B (Table B6)", "settings": "visual rating about 3 weeks after treatment vs untreated controls; for pest or weed control at 1280 g/ha: Tripleurospermum inodorum, post-emergence, 504 h, read-out: post-emergence activity against MATIN in %", "method": "as §1"}, "[5]": {"system": "Veronica persica (VERPE)", "experiment": "Herbicidal post-emergence action, section B (Table B10)", "settings": "application rate 320 g/ha, visual rating about 3 weeks after treatment vs untreated controls; for pest or weed control at 320 g/ha: Veronica persica, post-emergence, 504 h, read-out: post-emergence activity against VERPE in %", "summary_of_the_method": "as §2"}, "[6]": {"system": "Setaria viridis (SETVI)", "experiment": "Herbicidal post-emergence action, section E (Table E8)", "settings": "visual assessment ca. 3 weeks after spraying", "from_the_text": "Seeds of mono- and dicotyledonous weed plants and crop plants were sown, in plastic or organic planting pots, in sandy loam, covered with soil and grown in a greenhouse under controlled growth conditions. 2 to 3 weeks after sowing, the test plants were sprayed in the single-leaf stage. The compounds according to the invention, formulated in form of wettable powders (WP) or as emulsifiable concentrates (EC), were sprayed onto the green plant parts as aqueous suspension or emulsion, with the addition of 0.5% of an additive, at an application rate of 600 l of water/ha (converted). The test plants were placed in the greenhouse for ca. 3 weeks under optimum growth conditions, and then the effect of the preparations was assessed visually in comparison with untreated controls (herbicidal effect in percent (%): 100% effect=plants have died off, 0% effect=as control plants)."}, "[7]": {"system": "Triticum aestivum (TRZAS)", "experiment": "Post-emergence effects on crop plants, section F (Table F2)", "settings": "for post-emergence activity against TRZAS in %: crop plant damage", "summary_of_the_method": "(§3)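 Visual % damage versus untreated controls (100% = plants died, 0% = as control), assessed ca. 3 weeks after post-emergence spraying. Greenhouse plants in sandy loam were treated at the single-leaf stage with WP/EC formulations, 0.5% additive, 600 l water/ha, at 320 g/ha or below.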"}, "[8]": {"system": "Triticum aestivum (TRZAS)", "experiment": "Pre-emergence effects on crop plants, section D (Table D2)", "settings": "application rate 80 g/ha; visual grading after ca. 3 weeks", "summary_of_the_method": "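Formulated compound (wettable powder or emulsifiable concentrate) was applied pre-emergence to the soil surface at 320 g/ha or lower. Greenhouse-grown plants were rated visually for percent damage after ca. 3 weeks.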"}, "[9]": {"system": "Brassica napus (BRSNW)", "experiment": "Post-emergence effects on crop plants, section F (Table F5)", "settings": "crop plant damage, application rate 80 g/ha", "summary_of_the_method": "as §3"}},
  "data": [
    {"smiles": "Cc1cc2c(nc1-c1ccccc1F)NCS2", "note": "[Example I-007, 5-(2-fluorophenyl)-6-methyl-2,3-dihydro[1,3]thiazolo[4,5-b]pyridine]", "values": [
      {"measurement": "pest or weed control at 1280 g/ha", "setting": "[1]; Stellaria media, 504 h, application rate 1280 g/ha, read-out: pre-emergence activity against STEME in %", "value": 90, "unit": "%"},
      {"measurement": "pest or weed control at 320 g/ha", "setting": "[2]; Alopecurus myosuroides, post-emergence, 504 h, application rate 320 g/ha, read-out: post-emergence activity against ALOMY", "value": 90, "unit": "%"},
      {"measurement": "pest or weed control at 1280 g/ha", "setting": "[3]; application rate 1280 g/ha", "value": 90, "unit": "%"},
      {"measurement": "pest or weed control at 1280 g/ha", "setting": "[4]; application rate 1280 g/ha", "value": 90, "unit": "%"},
      {"measurement": "pest or weed control at 320 g/ha", "setting": "[5]", "value": 90, "unit": "%"},
      {"measurement": "pest or weed control at 80 g/ha", "setting": "[6]; Setaria viridis, 504 h, application rate 80 g/ha, read-out: post-emergence activity against SETVI in %", "value": 90, "unit": "%"}
    ]},
    {"smiles": "CCS(=O)(=O)N1CSc2cc(C)c(-c3ccccc3F)nc21", "note": "[Example I-060, 3-(ethylsulfonyl)-5-(2-fluorophenyl)-6-methyl-2,3-dihydro[1,3]thiazolo[4,5-b]pyridine]", "values": [
      {"measurement": "pest or weed control at 320 g/ha", "setting": "[1]; Stellaria media, 504 h, application rate 320 g/ha, read-out: pre-emergence activity against STEME in %", "value": 90, "unit": "%"},
      {"measurement": "pest or weed control at 1280 g/ha", "setting": "[2]; Alopecurus myosuroides, post-emergence, 504 h, application rate 1280 g/ha, read-out: post-emergence activity against ALOMY", "value": 90, "unit": "%"},
      {"measurement": "pest or weed control at 1280 g/ha", "setting": "[3]; application rate 1280 g/ha", "value": 90, "unit": "%"},
      {"measurement": "pest or weed control at 1280 g/ha", "setting": "[4]; application rate 1280 g/ha", "value": 90, "unit": "%"},
      {"measurement": "pest or weed control at 320 g/ha", "setting": "[5]", "value": 90, "unit": "%"},
      {"measurement": "pest or weed control at 320 g/ha", "setting": "[6]; Setaria viridis, 504 h, application rate 320 g/ha, read-out: post-emergence activity against SETVI in %", "value": 90, "unit": "%"},
      {"measurement": "percent crop plant damage (wheat, post-emergence) at 80 g/ha", "setting": "[7]; Triticum aestivum, 504 h, application rate 80 g/ha, read-out: post-emergence activity against TRZAS in %", "value": 0, "unit": "%"}
    ]},
    {"smiles": "Cc1cc2c(nc1-c1ccccc1F)N(S(=O)(=O)Cc1ccc(F)cc1)CS2", "note": "[Example I-122]", "values": [
      {"measurement": "pre-emergence activity against STEME in %", "setting": "[1]; application rate 320 g/ha", "value": 90, "unit": "%"},
      {"measurement": "post-emergence activity against ALOMY", "setting": "[2]; application rate 1280 g/ha", "value": 90, "unit": "%"},
      {"measurement": "post-emergence activity against ECHCG in %", "setting": "[3]; application rate 1280 g/ha", "value": 100, "unit": "%"},
      {"measurement": "post-emergence activity against MATIN in %", "setting": "[4]; application rate 1280 g/ha", "value": 90, "unit": "%"},
      {"measurement": "post-emergence activity against VERPE in %", "setting": "[5]", "value": 90, "unit": "%"},
      {"measurement": "pre-emergence activity against TRZAS in % (crop plant damage)", "setting": "[8]", "value": 10, "unit": "%"},
      {"measurement": "post-emergence activity against SETVI in %", "setting": "[6]; application rate 320 g/ha", "value": 80, "unit": "%"},
      {"measurement": "post-emergence activity against TRZAS in %", "setting": "[7]; application rate 80 g/ha", "value": 20, "unit": "%"},
      {"measurement": "post-emergence activity against BRSNW in %", "setting": "[9]", "value": 0, "unit": "%"}
    ]},
    {"smiles": "Cc1cc2c(nc1-c1ccccc1F)N(C(=O)C1(C)CC(Cl)=NO1)CS2", "note": "(stereo not drawn) [Example I-083]", "values": [
      {"measurement": "pre-emergence activity against STEME in %", "setting": "[1]; application rate 320 g/ha", "value": 90, "unit": "%"},
      {"measurement": "post-emergence activity against ALOMY", "setting": "[2]; application rate 1280 g/ha", "value": 90, "unit": "%"},
      {"measurement": "post-emergence activity against ECHCG in %", "setting": "[3]; application rate 1280 g/ha", "value": 90, "unit": "%"},
      {"measurement": "post-emergence activity against MATIN in %", "setting": "[4]; application rate 320 g/ha", "value": 90, "unit": "%"},
      {"measurement": "post-emergence activity against VERPE in %", "setting": "[5]", "value": 90, "unit": "%"},
      {"measurement": "post-emergence activity against SETVI in %", "setting": "[6]; application rate 320 g/ha", "value": 80, "unit": "%"}
    ]},
    {"smiles": "COC(=O)CCC(=O)N1CSc2cc(Cl)c(-c3ccccc3F)nc21", "note": "[Example I-003]", "values": [
      {"measurement": "pre-emergence activity against STEME in %", "setting": "[1]; application rate 1280 g/ha", "value": 90, "unit": "%"},
      {"measurement": "post-emergence activity against ALOMY", "setting": "[2]; application rate 320 g/ha", "value": 100, "unit": "%"},
      {"measurement": "post-emergence activity against VERPE in %", "setting": "[5]", "value": 100, "unit": "%"},
      {"measurement": "pre-emergence activity against TRZAS in % (crop plant damage)", "setting": "[8]", "value": 20, "unit": "%"},
      {"measurement": "post-emergence activity against SETVI in %", "setting": "[6]; application rate 320 g/ha", "value": 80, "unit": "%"},
      {"measurement": "post-emergence activity against TRZAS in %", "setting": "[7]; application rate 320 g/ha", "value": 0, "unit": "%"}
    ]},
    {"smiles": "Cc1cc2c(nc1-c1ccccc1F)N(C(=O)C13CCCC1C(Cl)=NO3)CS2", "note": "(stereo not drawn) [Example I-104]", "values": [
      {"measurement": "pre-emergence activity against STEME in %", "setting": "[1]; application rate 320 g/ha", "value": 90, "unit": "%"},
      {"measurement": "post-emergence activity against ALOMY", "setting": "[2]; application rate 1280 g/ha", "value": 90, "unit": "%"},
      {"measurement": "post-emergence activity against ECHCG in %", "setting": "[3]; application rate 320 g/ha", "value": 90, "unit": "%"},
      {"measurement": "post-emergence activity against MATIN in %", "setting": "[4]; application rate 1280 g/ha", "value": 90, "unit": "%"},
      {"measurement": "post-emergence activity against VERPE in %", "setting": "[5]", "value": 90, "unit": "%"},
      {"measurement": "pre-emergence activity against TRZAS in % (crop plant damage)", "setting": "[8]", "value": 0, "unit": "%"},
      {"measurement": "post-emergence activity against SETVI in %", "setting": "[6]; application rate 320 g/ha", "value": 90, "unit": "%"},
      {"measurement": "post-emergence activity against TRZAS in %", "setting": "[7]; application rate 80 g/ha", "value": 0, "unit": "%"}
    ]}
  ]
}
